Assay results reported in patent US11090308B2, “Methods of treating liver disorders or lipid disorders with a THR-beta agonist” (Madrigal Pharmaceuticals, Inc., priority 2016, dated 2021).

What was measured:
Format in all cases: in vitro ADME
[1] = molecular target: T1, CYP2C8 (Homo sapiens, UniProt P10632); assay: In vitro Cytochrome P-450 enzyme assay, CYP2C8; details: for IC50: read-out: Inhibitor of: CYP2C8, IC50
T1 sequence (P10632 1-490): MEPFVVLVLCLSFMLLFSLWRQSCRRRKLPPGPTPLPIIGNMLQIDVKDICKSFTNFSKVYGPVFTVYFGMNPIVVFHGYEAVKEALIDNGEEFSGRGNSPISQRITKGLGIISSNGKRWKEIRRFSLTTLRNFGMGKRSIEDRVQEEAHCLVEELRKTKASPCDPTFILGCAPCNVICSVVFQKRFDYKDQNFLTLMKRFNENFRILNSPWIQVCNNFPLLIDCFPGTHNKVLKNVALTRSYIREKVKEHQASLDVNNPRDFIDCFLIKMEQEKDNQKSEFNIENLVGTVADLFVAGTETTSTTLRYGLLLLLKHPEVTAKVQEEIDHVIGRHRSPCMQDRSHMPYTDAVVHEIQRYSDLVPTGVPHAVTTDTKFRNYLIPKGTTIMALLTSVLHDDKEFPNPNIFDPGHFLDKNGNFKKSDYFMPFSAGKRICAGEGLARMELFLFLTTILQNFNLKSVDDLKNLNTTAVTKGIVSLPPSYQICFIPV
Source text: (§1) The following studies have been conducted: (a) in vitro drug protein binding, transporter (organic anion transporting polypeptide [OATP], P-glycoprotein [P-gp], breast cancer-related protein [BCRP], and multiple drug resistance protein 1 [MDR1]), and cytochrome P-450 enzyme assays to investigate absorption, distribution, and excretion; (b) in vivo MGL-3196 rat and dog oral PK and bioavailability studies; (c) in vivo ^14C-MGL-3196 rat and dog oral pharmacokinetics, absorption, excretion, and tissue distribution by quantitative whole-body autoradiography (QWBA) studies; and (d) liver disposition of MGL-3196 using an in vitro sandwiched hepatocyte model system (B-CLEAR® technology) in dog (SCDH) and human (SCHH) hepatocytes.

[2] = molecular target: T2, OATP1B1 (Homo sapiens, UniProt Q9Y6L6); assay: In vitro drug transporter assay, OATP1B1
T2 sequence (Q9Y6L6 1-691): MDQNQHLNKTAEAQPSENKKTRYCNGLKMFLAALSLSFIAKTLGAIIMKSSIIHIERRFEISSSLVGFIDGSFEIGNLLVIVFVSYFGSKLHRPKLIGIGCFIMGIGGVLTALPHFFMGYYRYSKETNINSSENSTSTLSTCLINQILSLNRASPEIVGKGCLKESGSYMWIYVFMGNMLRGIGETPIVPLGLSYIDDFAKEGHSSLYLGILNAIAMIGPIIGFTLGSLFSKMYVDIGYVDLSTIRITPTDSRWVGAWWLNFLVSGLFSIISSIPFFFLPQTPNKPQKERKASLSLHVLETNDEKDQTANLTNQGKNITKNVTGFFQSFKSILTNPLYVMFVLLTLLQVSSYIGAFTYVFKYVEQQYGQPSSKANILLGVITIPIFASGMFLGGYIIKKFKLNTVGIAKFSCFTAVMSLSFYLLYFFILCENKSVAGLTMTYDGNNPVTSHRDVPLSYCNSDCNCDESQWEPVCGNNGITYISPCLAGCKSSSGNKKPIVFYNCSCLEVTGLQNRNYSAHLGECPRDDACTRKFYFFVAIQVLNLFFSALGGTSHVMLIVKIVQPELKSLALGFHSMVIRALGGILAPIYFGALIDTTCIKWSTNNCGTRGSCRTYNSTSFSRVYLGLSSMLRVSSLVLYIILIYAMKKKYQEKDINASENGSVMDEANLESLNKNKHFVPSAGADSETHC
Source text: as §1

[3] = molecular target: CYP2C19 (Homo sapiens, UniProt P33261); assay: In vitro Cytochrome P-450 enzyme assay, CYP2C19
Sequence of CYP2C19 (P33261 whole entry): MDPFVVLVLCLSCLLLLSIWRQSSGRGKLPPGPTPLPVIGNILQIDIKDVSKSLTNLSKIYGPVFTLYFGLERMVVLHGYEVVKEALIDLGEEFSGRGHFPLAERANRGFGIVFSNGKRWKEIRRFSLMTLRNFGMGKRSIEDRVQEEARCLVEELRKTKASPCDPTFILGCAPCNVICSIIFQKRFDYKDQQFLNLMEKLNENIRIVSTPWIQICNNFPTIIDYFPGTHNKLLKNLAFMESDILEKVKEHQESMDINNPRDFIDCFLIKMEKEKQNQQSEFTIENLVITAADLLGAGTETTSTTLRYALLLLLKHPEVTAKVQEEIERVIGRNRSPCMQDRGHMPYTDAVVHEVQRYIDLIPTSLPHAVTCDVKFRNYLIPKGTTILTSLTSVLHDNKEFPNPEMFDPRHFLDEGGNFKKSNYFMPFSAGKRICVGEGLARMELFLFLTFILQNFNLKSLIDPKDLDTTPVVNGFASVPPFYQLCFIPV

[4] = molecular target: CYP2D6 (Homo sapiens, UniProt P10635); assay: In vitro Cytochrome P-450 enzyme assay, CYP2D6
Sequence of CYP2D6 (P10635 whole entry): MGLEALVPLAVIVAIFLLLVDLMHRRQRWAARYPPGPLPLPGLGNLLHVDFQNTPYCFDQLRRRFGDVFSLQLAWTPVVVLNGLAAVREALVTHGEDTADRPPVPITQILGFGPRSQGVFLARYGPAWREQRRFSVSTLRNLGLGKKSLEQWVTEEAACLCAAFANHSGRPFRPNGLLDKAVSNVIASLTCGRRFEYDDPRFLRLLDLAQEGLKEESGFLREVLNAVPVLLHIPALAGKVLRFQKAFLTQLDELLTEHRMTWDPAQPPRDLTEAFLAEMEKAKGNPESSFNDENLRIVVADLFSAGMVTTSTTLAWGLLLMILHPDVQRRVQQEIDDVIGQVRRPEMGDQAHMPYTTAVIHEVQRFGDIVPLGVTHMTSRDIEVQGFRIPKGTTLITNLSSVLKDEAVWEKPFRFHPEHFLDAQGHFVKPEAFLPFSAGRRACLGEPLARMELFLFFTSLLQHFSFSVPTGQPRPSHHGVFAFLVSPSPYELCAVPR
Source text: as §1

[5] = test system: CYP3A4/5; assay: In vitro Cytochrome P-450 enzyme assay, CYP3A4/5
[6] = test system: sandwich-cultured human hepatocytes (SCHH); assay: Hepatobiliary disposition in sandwich-cultured human hepatocytes (SCHH)
Description: Qualyst Transporter Solutions evaluated the hepatic uptake of MGL-3196 in sandwich cultured human hypetocytes (SCHH). MGL-3196 was evaluated at 30 μM after a 20-minute incubation (based on a pilot uptake study) in the presence of a physiologic concentration of bovine serum albumin (BSA, ˜4%). The experiment was performed in a 24-well format using 1 lot of Transporter Certified™ human hepatocytes (N=1). Each test condition was performed in 3 wells to provide triplicate data. Sample preparation and LC/MS/MS analysis of cell lysate to determine concentrations of MGL-3196 was performed at QTS according to analytical assay methodology and analytical standards supplied by Madrigal Pharmaceuticals. The following parameter for test article were determined: (a) total accumulation (hepatic uptake), (b) cellular accumulation (intracellular concentration), (c) biliary excretion index (hepatic efflux), (d) Kp value (hepatic accumulation), (e) in vitro biliary clearance (predictive of in vivo biliary clearance), and (f) media accumulation (post incubation supernatant).
Parameters determined: • Bile Accumulation=Total Accumulationplus(+)Buffer−Cellular AccumulationMinus(−)Buffer
[formula] • AUC=(Incubation Time)*(Analyte ConcentrationMedia) • In vitro biliary clearance:
[formula] • (Kp ratio reflects the extent of MGL-3196 accumulation in hepatocyte to the total MGL-3196 concentration in the buffer, outside of the hepatocyte).
(§2) MGL-3196 and its metabolite, MGL-3196-M1 (M1), were evaluated in sandwich-cultured human hepatocytes (SCHH) to evaluate the effects of temperature and concentration on total accumulation. Incubations were performed in presence of 4% bovine serum albumin (BSA) for 20 minutes at 37° C. and 4° C. across multiple concentrations (3, 10, 30, and 100 μM). Following the hepatic accumulation study, a species comparison of the hepatobiliary disposition of MGL-3196 (30 μM) and its metabolite, M1, was evaluated in SCHH and sandwich-cultured dog hepatocytes (SCDH) in the presence of 4% BSA.

[7] = test system: sandwich-cultured human hepatocytes (SCHH); assay: Effects of temperature and concentration on total accumulation in SCHH
Description: as §2

[8] = 20 min exposure to MGL-3196 30 μM, 4% BSA

With `CC(C)c1cc(Oc2c(Cl)cc(-n3nc(C#N)c(=O)[nH]c3=O)cc2Cl)n[nH]c1=O` [MGL-3196, 2-(3,5-dichloro-4-((5-isopropyl-6-oxo-1,6-dihydropyridazin-3-yl)oxy)phenyl)-3,5-dioxo-2,3,4,5-tetrahydro-1,2,4-triazine-6-carbonitrile] the “Substrate for: CYP2C8” value [1] was “CYP2C8;”, the IC50 [1] was 0.9 µM and the “Substrate for: OATP1B1” value [2] was “OATP1B1;”. For the same compound, the “Inhibitor of: OATP1B1, % inhibition” value ([2]; @ 10 uM Pravastatin) was 29%, the IC50 ([2]; read-out: Inhibitor of: OATP1B1, IC50) was 3.7 µM and the “Inhibitor of: CYP2C19” value [3] was “not an inhibitor”. For the same compound, the “Inhibitor of: CYP2D6” value [4] was “not an inhibitor”, the “Inhibitor of: CYP3A4/5” value [5] was “not an inhibitor” and the “BEI (Biliary Excretion Index)” value [6, 8] was 33.7%. For the same compound, the “Bile Acc.” value [6, 8] was 293 pmol/mg, the “Cellular Acc.” value [6, 8] was 570 pmol/mg and the “ClBiliary (in vitro biliary clearance)” value [6, 8] was 1.45 mL/min/kg. For the same compound, the “ICC (intracellular concentration)” value [6, 8] was 74.2 µM, the Kp [6, 8] was 2.47 Ratio and the “Total Acc.” value [6, 8] was 863 pmol/mg. The “share of total accumulation (hepatocytes+bile) mediated by an active uptake process (temperature-dependent)” value ([7]; 37° C. vs 4° C., 20 minutes, 4% BSA, 3, 10, 30, 100 μM) was no less than 72.8%.
For `CC(CO)c1cc(Oc2c(Cl)cc(-n3nc(C#N)c(=O)[nH]c3=O)cc2Cl)n[nH]c1=O` (stereo not shown) [MGL-3623], the “Substrate for: CYP2C8” value [1] was “CYP 2C8”, the IC50 [1] was 6.1 µM and the “Substrate for: OATP1B1” value [2] was “OATP1B1”. It also gave an inhibition at 10 µM ([2]; @10 uM, insignificant, read-out: Inhibitor of: OATP1B1, % inhib) of 23%, an IC50 ([3]; range given jointly for CYP2B6, CYP2C9, CYP2C19, weak, read-out: Inhibitor of: CYP2C19, IC50) of 24 to 35 µM and an IC50 ([4]; read-out: Inhibitor of: CYP2D6, IC50) greater than 50 µM. The IC50 ([5]; human, weak, read-out: Inhibitor of: CYP3A4/5, IC50) was 35 µM, the “BEI (Biliary Excretion Index)” value [6, 8] was 30.4% and the “Bile Acc.” value [6, 8] was 1.78 pmol/mg. The “Cellular Acc.” value [6, 8] was 4.01 pmol/mg, the “ICC (intracellular concentration)” value [6, 8] was 0.521 µM and the “PIS (post incubation supernatant, cell culture media)” value [6, 8] was “BLQ”. The “Total Acc.” value [6, 8] was 5.79 pmol/mg, the “accumulation as % of parent's total accumulation” value ([6]; MGL-3196 30 μM, 20 minutes) was 0.67% and the “reduction of accumulation in 4° C. incubations” value ([7]; across all MGL-3196 exposure levels examined) was no less than 65%.
